Results: patent US9040527B2, “Pyrimidinediamine kinase inhibitors” (Rigel Pharmaceuticals, Inc., priority 2008, dated 2015)
Structures can show the parent of a compound that is named as a salt. Where two headings read alike, the source gives them in different places.

Target: PLK1 (Homo sapiens, UniProt P53350)
Test: In vitro PLK1 ELISA assay (biochemical)
Set-up: purchased Cell Signalling 7728
Procedure: Inhibition of PLK1 was measured by quantifying phosphorylation of PLK1 substrates using chemiluminescent and fluorogenic probes. The protocols for these assays are provided below.
In Vitro PLK1 ELISA Assay
1. Preparation of Assay Plates.
Costar 96-well black or white solid flat high binding plates (Fisher Scientific, Catalog No. 07-200-591) were coated with Neutravidin (Pierce, Catalog No. 31000) using the following protocol. A 0.01 mg/mL solution of Neutravidin in 1× Phosphate Buffered Saline (“PBS”, Cellgro/Mediatech, Catalog No. 21-040-CV) was added to each well (100 μL/well) and was incubated for 18-24 hours at 4° C. The plates were then washed with 1× Phosphate Buffer Saline—Tween (“PBST”, Calbiochem, Catalog No. 524653) buffer using a plate washer. The plates were treated with bovine serum albumin (“BSA”, Sigma, Catalog No. A7906) to block non-specific binding sites, by adding a 2% BSA solution in 1×PBST buffer to each well (100 μL/well) and incubating the plates for 1 hour at room temperature. The plates were then washed with 1×PBST buffer using a plate washer.
2. PLK1-Catalyzed Phosphorylation Reaction
An aqueous buffer solution A having the following composition was prepared:
20 mM HEPES (Cellgro/Mediatech, Catalog No. 25-060Ci), pH 7.2;
5 mM MgCl2 (Sigma, Catalog No. M2393);
2 mM MnCl2.4H2O (EM Biosciences, Catalog No. MX0185-2);
1 mM Dithiothreitol (“DTT”, Fluka, Catalog No. B4184).
Next, the substrate solution B was prepared by adding 2.6 μL of 10 mM ATP (Sigma, Catalog No. A7699) and 6.4 μL of the 1 mM PLK1 substrate, CHK2-derived peptide Biotin-SSLETVSTQELYSIP (custom synthesized at Anaspec) SEQ ID: No. 1, to 4691 μL of the buffer solution A. The concentration of the ATP in solution B is 5.44 μM (1.36×); the concentration of the PLK1 substrate in solution B is 1.36 μM (1.36×).
Compound solutions C of varying concentrations for each compound were prepared by dissolving each compound in dimethylsulfoxide (DMSO, Sigma, Catalog No. D2650) to varying concentrations, followed by adding 2 μL of each solution to 38 μL of the buffer solution A, thereby forming 10× compound solutions in 5% DMSO.
A PLK1 solution D was prepared by adding 8.4 μL of 100 μg/mL PLK1 (Cell Signalling, Catalog No. 7728) to 1392 μL of the buffer solution A, thereby forming 0.6 μg/mL (6×) PLK1 solution.
The aqueous 1.36× substrate solution B was added to each well (44 μL/well) resulting in binding of the substrate to the plate via biotin/neutravidin interaction. Then 10× compound solutions C for each tested compound at each tested concentration were added to each well (6 μL/well). Next, 6×PLK1 solution D was added to each well (10 μL/well).
The final concentrations of tested compounds in each well were 10 μM, 3.3 μM, 1.1 μM, 0.36 μM, 0.12 μM, 0.04 μM, 0.014 μM, and 0.005 μM.
The obtained reaction mixtures were incubated in the wells for 45 minutes at room temperature, allowing PLK1-catalyzed phosphorylation of the substrate to proceed. The plates were then washed with 1×PBST solution using a plate washer, such that the bound phosphorylated or unphosphorylated substrate remains attached to the wells upon washing.
The washed plates were developed by treating the plates with a primary antibody that is specific for the phosphorylated substrate, followed by treatment with a secondary antibody that is specific for the primary antibody, and that is capable of catalyzing a reaction that results in a chemiluminescent readout. The chemiluminescent readout was used to quantify the substrate phosphorylation, and, consequently, to determine IC50 values for PLK1 inhibition, and was measured using a luminometer (Perkin Elmer/Wallac plate reader). The plate development protocol is described below.
A mixed antibody solution E was prepared by adding 1 μL of the primary antibody, rabbit p-CHK2(T68) (Rockland, Catalog No. 401280), and 1 μL of the secondary antibody, HRP-goat anti-rabbit IgG (Jackson Immunoresearch Catalog No. 111-035-003) to 10000 μL of 0.1% BSA in 1×PBST buffer. […]

[1] = read-out: IC50 in biochemical ELISA assay (less than 0.01 μM)
[2] = ELISA, CHK2-derived peptide substrate, read-out: PLK1 IC50 (μM) biochemical assay
[3] = read-out: IC50 in biochemical in vitro PLK1 ELISA assay (less than 10 μM)

Chain of PLK1 (P53350 whole entry): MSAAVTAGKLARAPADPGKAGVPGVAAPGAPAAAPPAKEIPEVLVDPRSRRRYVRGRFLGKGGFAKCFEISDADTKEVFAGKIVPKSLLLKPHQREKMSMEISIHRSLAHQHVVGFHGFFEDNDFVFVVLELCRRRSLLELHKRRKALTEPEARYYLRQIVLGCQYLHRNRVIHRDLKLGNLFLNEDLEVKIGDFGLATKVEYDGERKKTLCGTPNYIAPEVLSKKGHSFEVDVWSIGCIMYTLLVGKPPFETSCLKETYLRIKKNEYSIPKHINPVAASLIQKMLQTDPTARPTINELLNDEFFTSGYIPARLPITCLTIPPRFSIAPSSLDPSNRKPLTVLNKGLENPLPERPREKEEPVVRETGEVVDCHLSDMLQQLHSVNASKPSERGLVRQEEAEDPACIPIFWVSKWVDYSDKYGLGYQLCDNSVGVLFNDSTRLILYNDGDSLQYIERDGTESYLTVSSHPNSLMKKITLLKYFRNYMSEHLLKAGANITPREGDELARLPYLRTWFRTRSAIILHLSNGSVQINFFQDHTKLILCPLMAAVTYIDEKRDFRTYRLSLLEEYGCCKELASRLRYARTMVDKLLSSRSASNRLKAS

| IC50 [1] [µM] | IC50 [2] [µM] | IC50 [3] [µM] | SMILES |
| --- | --- | --- | --- |
| < 0.01 |  |  | CN1CCN(c2cccc(Nc3ncc(F)c(Nc4ccc5c(n4)NC(=O)CO5)n3)c2)CC1 [compound 19, 6-(5-fluoro-2-(3-(4-methylpiperazin-1-yl)phenylamino)pyrimidin-4-ylamino)-2H-pyrido[3,2-b][1,4]oxazin-3(4H)-one hydrochloride] |
|  | ≥ 10 |  | CN1CC2CC1CN2c1ccc(Nc2ncc(F)c(Nc3ccc4c(n3)NCCO4)n2)cc1C(F)(F)F (stereo not drawn) [compound 57, N4-(3,4-dihydro-2H-pyrido[3,2-b][1,4]oxazin-6-yl)-5-fluoro-N2-(4-(5-methyl-2,5-diazabicyclo[2.2.1]heptan-2-yl)-3-(trifluoro-methyl)phenyl)pyrimidine-2,4-diamine] |
| < 0.01 | < 0.5 | < 10 | CN1CCN(c2cccc(Nc3ncc(C(F)(F)F)c(Nc4ccc5c(n4)NC(=O)CO5)n3)c2)CC1 [compound 6, 6-(2-(3-(4-methylpiperazin-1-yl)phenylamino)-5-(trifluoro-methyl)pyrimidin-4-ylamino)-2H-pyrido[3,2-b][1,4]oxazin-3(4H)-one] |
|  | ≥ 10 |  | COC(=O)c1cnc(Nc2cccc(N3CCN(C)CC3)c2)nc1Nc1ccc2c(n1)NCCO2 [compound 11, methyl 4-(3,4-dihydro-2H-pyrido[3,2-b][1,4]oxazin-6-ylamino)-2-(3-(4-methylpiperazin-1-yl)phenylamino)pyrimidine-5-carboxylate] |
|  | 0.5 to 5 | < 10 | Cc1cc(Nc2ncc(F)c(Nc3ccc4c(n3)N(CC3CC3)C(=O)CO4)n2)ccc1N1CCN(C)CC1 [compound 111, 4-(cyclopropylmethyl)-6-(5-fluoro-2-(3-methyl-4-(4-methylpiperazin-1-yl)phenylamino)pyrimidin-4-ylamino)-2H-pyrido[3,2-b][1,4]oxazin-3(4H)-one] |
|  | < 0.5 | < 10 | CN1CCN(c2cc(Nc3ncc(F)c(Nc4ccc5c(n4)NCCO5)n3)cc(OCC3CCC3)c2)CC1 [compound 16, N2-(3-(cyclobutylmethoxy)-5-(4-methylpiperazin-1-yl)phenyl)-N4-(3,4-dihydro-2H-pyrido[3,2-b][1,4]oxazin-6-yl)-5-fluoropyrimidine-2,4-diamine] |
|  | ≥ 10 |  | CC(C)c1cc(Nc2ncc(F)c(Nc3ccc4c(n3)NCCO4)n2)ccc1N1CC2CC1CN2C (stereo not drawn) [compound 10, N4-(3,4-dihydro-2H-pyrido[3,2-b][1,4]oxazin-6-yl)-5-fluoro-N2-(3-isopropyl-4-(5-methyl-2,5-diazabicyclo[2.2.1]heptan-2-yl)phenyl)pyrimidine-2,4-diamine] |
|  | ≥ 10 |  | CN1CCN(c2cccc(Nc3ncc(F)c(N(CC4CCCCC4)c4ccc5c(n4)NCCO5)n3)c2)CC1 [compound 7, N4-(cyclohexylmethyl)-N4-(3,4-dihydro-2H-pyrido[3,2-b][1,4]oxazin-6-yl)-5-fluoro-N2-(3-(4-methylpiperazin-1-yl)phenyl)pyrimidine-2,4-diamine] |
|  | ≥ 10 |  | CN1CCN(c2cccc(Nc3ncc(F)c(N(c4ccc5c(n4)NCCO5)C4CCCCC4)n3)c2)CC1 [compound 9, N4-cyclohexyl-N4-(3,4-dihydro-2H-pyrido[3,2-b][1,4]oxazin-6-yl)-5-fluoro-N2-(3-(4-methylpiperazin-1-yl)phenyl)pyrimidine-2,4-diamine] |
|  | < 0.5 | < 10 | COc1cc(Nc2ncc(F)c(Nc3ccc4c(n3)NC(=O)CO4)n2)cc(N2CCN(C)CC2)c1 [compound 3, 6-(5-fluoro-2-(3-methoxy-5-(4-methylpiperazin-1-yl)phenylamino)pyrimidin-4-ylamino)-2H-pyrido[3,2-b][1,4]oxazin-3(4H)-one] |
| < 0.01 | < 0.5 | < 10 | COc1cc(Nc2ncc(F)c(Nc3ccc4c(n3)NCCO4)n2)cc(N2CCN(C)CC2)c1 [compound 5, N4-(3,4-dihydro-2H-pyrido[3,2-b][1,4]oxazin-6-yl)-5-fluoro-N2-(3-methoxy-5-(4-methylpiperazin-1-yl)phenyl)pyrimidine-2,4-diamine] |
|  | ≥ 10 |  | CN1CCN(c2cc(Nc3ncc(F)c(Nc4ccc5c(n4)NC(=O)CO5)n3)cc(OCC3CCC3)c2)CC1 [compound 14, 6-(2-(3-(cyclobutylmethoxy)-5-(4-methylpiperazin-1-yl)phenylamino)-5-fluoropyrimidin-4-ylamino)-2H-pyrido[3,2-b][1,4]oxazin-3(4H)-one] |
| < 0.01 |  |  | CN1CCN(c2cccc(Nc3ncc(F)c(Nc4ccc5c(n4)NCCO5)n3)c2)CC1 [compound 168, N4-(3,4-dihydro-2H-pyrido[3,2-b][1,4]oxazin-6-yl)-5-fluoro-N2-(3-(4-methylpiperazin-1-yl)phenyl)pyrimidine-2,4-diamine p-toluene sulfonic acid salt] |
|  | 0.5 to 5 | < 10 | CN1CCN(c2cccc(Nc3ncc(F)c(N(c4ccc5c(n4)NCCO5)C4CCC4)n3)c2)CC1 [compound 15, N4-cyclobutyl-N4-(3,4-dihydro-2H-pyrido[3,2-b][1,4]oxazin-6-yl)-5-fluoro-N2-(3-(4-methylpiperazin-1-yl)phenyl)pyrimidine-2,4-diamine] |
|  | ≥ 10 |  | CC(C)c1cc(Nc2ncc(F)c(Nc3ccc4c(n3)NC(=O)CO4)n2)ccc1N1CC2CC1CN2C (stereo not drawn) [compound 8, 6-(5-fluoro-2-(3-isopropyl-4-(5-methyl-2,5-diazabicyclo[2.2.1]heptan-2-yl)phenylamino)pyrimidin-4-ylamino)-2H-pyrido[3,2-b][1,4]oxazin-3(4H)-one] |
|  | ≥ 10 |  | CN1CCN(c2cccc(Nc3ncc(C(=O)O)c(Nc4ccc5c(n4)NCCO5)n3)c2)CC1 [compound 12, 4-(3,4-dihydro-2H-pyrido[3,2-b][1,4]oxazin-6-ylamino)-2-(3-(4-methyl-piperazin-1-yl)phenyl-amino)pyrimidine-5-carboxylic acid] |
|  | 5 to 10 | < 10 | CN1CCN(c2cccc(Nc3ncc(F)c(N(CC4CCC4)c4ccc5c(n4)NCCO5)n3)c2)CC1 [compound 4, N4-(cyclobutylmethyl)-N4-(3,4-dihydro-2H-pyrido[3,2-b][1,4]oxazin-6-yl)-5-fluoro-N2-(3-(4-methylpiperazin-1-yl)phenyl)pyrimidine-2,4-diamine] |
|  | ≥ 10 |  | CN1CCN(c2cccc(Nc3nccc(Nc4ccc5c(n4)NC(=O)CO5)n3)c2)CC1 [compound 13, 6-(2-(3-(4-methylpiperazin-1-yl)phenylamino)pyrimidin-4-ylamino)-2H-pyrido[3,2-b][1,4]oxazin-3(4H)-one] |
